“Also recorded” adds a separate entry of the source.
Assays:
[1] = system: IL-10 knockout mouse model of spontaneous colitis; assay: IL-10 knockout mouse model of spontaneous colitis; type: in vivo
From the text: The interleukin-10 (IL-10) knockout (KO) mouse model mirrors the multifactorial nature of inflammatory bowel disease (IBD), such as ulcerative colitis and Crohn's disease, as IL-10 KO mice, BALB/cAnNTac-1110^em7Tac, spontaneously develop colitis. Colitis in IL-10 KO mice results from an aberrant response of CD4^+ T helper 1-like T cells and an excessive secretion of the proinflammatory cytokines that signal through the Janus kinase/signal transducers and activators of transcription (JAK/STAT) pathway. Compound 1 is a potent JAK1 inhibitor with 22 to >500-fold selectivity for JAK2, JAK3 and TYK2, and is currently being investigated as a monotherapy in a clinical trial for moderate-to-severe ulcerative colitis.
Female IL-10 homozygote knockout mice on the BALB/c strain background were provided by Taconic (USA). From 6 weeks of age onwards, Compound 1 and vehicle (10 mL/kg) were administered by oral gavage twice daily. Diarrhea was quantified on a 0-3 rating scale, (0=normal; 1=soft but still formed; 2=very soft; 3=diarrhea). Mice were euthanized by CO2 asphyxiation and colon length and weight measured. Tissue pathology was scored on a scale of 0 to 10 based on the following criteria: Lymphocytic infiltrate in the mucosa and the gut associated lymphoid tissue located in the lamina propria/submucosa, mucosal erosions/ulcerations, and transmural inflammation. Body weight, stool consistency, fecal occult blood and rectal bleeding were scored. The incidence of rectal prolapse was recorded.

RA patients = assay: Clinical study in rheumatoid arthritis patients (ACR responses, ANC); type: in vivo, human
Protocol: However, the greatest inhibition appeared to be observed following 200 mg BID dosing. Also noteworthy is that the 100 mg QD dose had less TPO induced pSTAT3 inhibition than placebo.

[2] = Quantitative autoradioluminography (QARL) of colon sections; type: in vitro ADME, human; conditions: ex vivo, 100 and 1000 nM apical, 1 h
Protocol: Intestinal tissue permeation studies were performed using a vertical Ussing diffusion chamber system (Harvard Apparatus, Holliston, Mass.) for healthy tissues. Frozen tissues were thawed to ambient temperature and rinsed with pre-warmed KRB buffer used for dose formulation before being gently placed on the apparatus. Permeation was carried out mucosal-to-serosal at 37° C. for 1 hour with test article in KRB buffer added to the mucosal side. The receiver side of Ussing chamber containing blank KRB buffer was stirred with air bubbles by an aerator. Due to the limited availability of the samples, UC tissues were mounted (mucosal side up) on one end of a polypropylene tube with both ends cut open, and serosal side placed on blank KRB buffer in a vial with a stirring bar. KRB containing the test article was added into the tube and thus the mucosal side of the tissue was exposed to test article during the incubation. After 1 hour incubation at 37° C., samples (100-500 μL) were taken from both donor and receiver side, and then transferred to a 1.5 mL tube for evaluating the permeation. […]
All response curves determined for image analysis calibration were generated using a weighted 1st degree, polynomial, linear equation (1/MDC/mm^2). […]
The LLOQ was determined as 3 times the mean background for each panel. […]

[3] = system: patients with plaque psoriasis; assay: Clinical study in patients with plaque psoriasis (sPGA, safety); type: in vivo, human
Protocol: (§1) The systemic effects of Compound 1 have been studied in the auto-immune diseases RA and Ps. Inhibition of phosphorylation of STAT3 following stimulation with IL-6, a marker of AK1 inhibition, and TPO, a marker of JAK2 inhibition was measured in both studies. In patients with Ps doses of 100 mg QD, 200 mg QD, 200 mg BID, and 600 mg QD were studied.

[4] = system: TPO-induced STAT3 phosphorylation; assay: Ex vivo TPO-induced STAT3 phosphorylation in dosed patients (marker of JAK2 inhibition); parameters: species or system human
Protocol: as §1

[5] = 30 mg/kg oral twice daily, vs vehicle

Question: With N#CCC1(n2cc(-c3ncnc4[nH]ccc34)cn2)CN(C2CCN(C(=O)c3ccnc(C(F)(F)F)c3F)CC2)C1 [Compound 1, {1-{1-[3-Fluoro-2-(trifluoromethyl)isonicotinoyl]piperidin-4-yl}-3-[4-(7H-pyrrolo[2,3-d]pyrimidin-4-yl)-1H-pyrazol-1-yl]azetidin-3-yl}acetonitrile] as the molecule, how does the “colitis / disease onset” value ([1]; 30 mg/kg oral twice daily) read?
Answer: inhibited disease onset; also recorded: significantly (p<0.001) delayed colitis onset

Question: What about the disease-associated weight loss ([1]; 30 mg/kg oral twice daily) of the same molecule?
Answer: modulated disease-associated weight loss

Question: And the colon structural pathology [1, 5]?
Answer: significant (p<0.01) reduction in colon structural pathology

Question: And the “cumulative clinical disease score (symptoms)” value [1, 5]?
Answer: reduces symptoms; also recorded: significantly (p<0.0001) reduced

Question: And the “incidence of rectal prolapse” value [1, 5]?
Answer: significantly (p<0.01) lower

Question: What about the “lymphocytic infiltration and transmural inflammation” value [1, 5] of the same molecule?
Answer: significantly (p<0.01) decreased

Question: And the “gene expression in the colon” value ([1]; oral, vs vehicle)?
Answer: differential gene expression profiles in the colon

Question: What about the colon morphology ([1]; systemic (oral) delivery) of the same molecule?
Answer: significant protective effects on colon morphology

Question: What about the “ACR20, ACR50, and ACR70 responses versus placebo” value (RA patients; 600 mg QD, Day 84 visit) of the same molecule?
Answer: statistically significant differences in ACR20, ACR50, and ACR70 responses

Question: And the “decreased ANC” value (RA patients; RA patients)?
Answer: several cases of decreased ANC but no dose-dependent trend was observed

Question: What about the “penetration into colon tissue layers” value [2] of the same molecule?
Answer: penetrated into the mucosal layer and, to a lesser extent, submucosal layer in a concentration dependent manner

Question: What about the “mean change from baseline sPGA at Day 28, dose relation” value ([3]; 100 mg QD, 200 mg QD, 200 mg BID, 600 mg QD) of the same molecule?
Answer: dose-dependent response

Question: What about the “Day 28 sPGA score, Mean (SD)” value ([3]; 100 mg QD, n=9) of the same molecule?
Answer: 2.6 (1.01)

Question: What about the “Day 28 sPGA score, Median” value ([3]; 100 mg QD, n=9) of the same molecule?
Answer: 2.0

Question: And the “Percent change from baseline in sPGA score at Day 28, Median” value (“Percent change from baseline … Median” for short) ([3]; 100 mg QD, n=9)?
Answer: −33.3%

Question: And the “Percent change from baseline in sPGA score at Day 28, Mean (SD)” value (“Percent change from baseline … (SD)” below) ([3]; 100 mg QD, n=9, p=0.270 vs placebo)?
Answer: −22.2 (23.57) Percent

Question: And the “change from baseline in sPGA, clinical meaning” value ([3]; 200 mg BID (p=0.053) and 600 mg QD (p=0.003))?
Answer: clinically meaningful changes from baseline

Question: And the “Day 28 sPGA score, Mean (SD)” value ([3]; 200 mg BID, n=9)?
Answer: 2.0 (1.00)

Question: What about the “Day 28 sPGA score, Median” value ([3]; 200 mg BID, n=9) of the same molecule?
Answer: 2.0

Question: And the “Percent change from baseline … Median” value ([3]; 200 mg BID, n=9)?
Answer: −33.3%

Question: What about the “Percent change from baseline … (SD)” value ([3]; 200 mg BID, n=9, p=0.053 vs placebo) of the same molecule?
Answer: −35.2 (33.79) Percent

Question: What about the “Day 28 sPGA score, Mean (SD)” value ([3]; 200 mg QD, n=9) of the same molecule?
Answer: 2.3 (1.00)

Question: And the “Day 28 sPGA score, Median” value ([3]; 200 mg QD, n=9)?
Answer: 2.0

Question: And the “Percent change from baseline … Median” value ([3]; 200 mg QD, n=9)?
Answer: −33.3%

Question: And the “Percent change from baseline … (SD)” value ([3]; 200 mg QD, n=9, p=0.118 vs placebo)?
Answer: −29.4 (31.14) Percent

Question: And the “Day 28 sPGA score, Mean (SD)” value ([3]; 600 mg QD, n=11)?
Answer: 1.8 (0.98)

Question: What about the “Day 28 sPGA score, Median” value ([3]; 600 mg QD, n=11) of the same molecule?
Answer: 2.0

Question: What about the “Percent change from baseline … Median” value ([3]; 600 mg QD, n=11) of the same molecule?
Answer: −33.3%

Question: And the “Percent change from baseline … (SD)” value ([3]; 600 mg QD, n=11, p=0.003 vs placebo)?
Answer: −42.4 (26.21) Percent

Question: And the neutropenia ([3]; psoriasis patients)?
Answer: No neutropenia was noted

Question: What about the “TPO induced pSTAT3 inhibition” value ([4]; RA patients, 100 mg QD to 600 mg QD, Cycle 1 Day 15) of the same molecule?
Answer: general trend of increasing TPO induced pSTAT3 inhibition

Question: What about the “inhibition of pSTAT3 in response to TPO” value ([4]; psoriasis patients, 100 mg QD, 200 mg QD, and 200 mg BID) of the same molecule?
Answer: no significant inhibition of pSTAT3

Reference: patent US11596632B2, “JAK1 pathway inhibitors for the treatment of gastrointestinal disease” (Incyte Corporation, priority 2018, dated 2023)
